Patent US10314816B2, “Antimicrobial compounds, compositions and methods of use thereof” (Wisconsin Alumni Research Foundation, priority 2012, dated 2019)

What was measured:
GFP-MinD = experiment: Measurement of compound effects on MinD localization; format: cell-based, Bacillus subtilis; conditions: B. subtilis cells, treated 20 minutes, compared to DMSO
Procedure: Measurement of compound effects on MinD: B. subtilis DS4294 (amyE::Pxyl-GFP-minD cat) cells were grown to exponential phase (λ=600 nm, 0.4-0.7) in LB with incubation at 30° C. and 200 rpm shaking. Cells were induced for GFP-MinD production by adding xylose to the media to a final concentration of 0.1% (w/v) followed by incubating for 75 min. After induction, cells were treated with compounds for 20 minutes before imaging. Other details for imaging conditions and data analysis were identical to those described for MipZ-YFP, except for the definition of poles, and a set of criteria used for defining ‘wildtype’ protein localization. ‘Wildtype’ was defined as 1) GFP-MinD was bipolar, meaning there were two peaks, and both peaks were at the poles (1-20% and 80-100% of the normalized cell length); 2) GFP-MinD was at the mid-cell in addition to the bipolar localization, meaning there were three peaks with two of them at the poles and one at mid-cell; and 3) GFP-MinD was at an quaternary position (20-40% and 60-80% of the normalized cell length) in addition to the bipolar and mid-cell localization (the total number of peaks was 4 if there is one quaternary peak, and the total was 5 if there are two quaternary peaks). Because B. subtilis cells can initiate division prior to finishing an earlier division and the completion of septation, these normal cells have peaks at quaternary positions. […]

E. aerogenes = experiment: MIC of bacterial growth (Table 2); format: cell-based, Enterobacter aerogenes; conditions: Klebsiella aerogenes; E. aerogenes clinical isolate (Table 2)
Procedure: (§1) Determination of the minimum inhibitory concentration (MIC) of bacterial growth. The MIC of various organisms in liquid media was determined using the macrodilution method according to the NCCLS guidelines. For the starting inoculum, cultures were diluted to contain approximately 5×10^5 cells/mL in growth media. To create a two-fold dilution series for the macrodilution technique, each compound was added to the first culture tube (4 mL total volume) at the highest concentration. 2 mL of this culture was diluted into an equal volume of inoculated media (a two-fold dilution). The final volume for each culture was 2 mL.

MipZ-YFP = experiment: Effects of compounds on MipZ localization; format: cell-based, Caulobacter crescentus; conditions: DCAP 20 μM, 20 min after treating C. crescentus cells; p=0.0002 vs DMSO
Procedure: Effects of compounds on MipZ localization. A strain of C. crescentus in which MipZ was translationally fused to yellow fluorescent protein (YFP) was used to determine the effect of DCAP on MipZ localization. For experiments with C. crescentus expressing MipZ-YFP, overnight cultures were diluted 10-fold and incubated at least 1 hour prior to treatment with compounds. After adding compounds, cells were incubated at 200 rpm and 30° C. for 20 minutes. Cells were imaged as described above. Following cell segmentation and fluorescence signal calculation in MicrobeTracker, a separate MATLAB script was used to detect signal peaks within an individual cell. The number of total peaks and peak locations were calculated (i.e., poles or mid-cell) for each cell. Poles were defined as 1-25% and 75-100% along the normalized cell length (1-100%). […] After this classification, a contingency table was created with the total number of cells analyzed, and the number of cells with the ‘wildtype’ localization. […]
As a positive control, carbonyl cyanide m-chlorophenyl hydrazone (CCCP) was used. In FIG. 3, ‘wildtype’ (WT) localization was defined as 1) unipolar (a single peak of fluorescence signal at a pole) and 2) bipolar (two peaks at poles). […] At least 69 cells were analyzed for each sample. […]

Vibrio cholera = experiment: MIC of DCAP analogs, LB media, microdilution (CLSI); format: cell-based; conditions: Vibrio cholerae
Procedure: (§2) Luria-Bertani (LB) media (10 g/L tryptone, 10 g/L NaCl, 5 g/L yeast extract, pH 7.0) was used to grow all the strains represented in Tables 5 and 6. All the cultures were grown at 37° C. All the E. coli strains were grown while shaking at 200 rpm and the clinical pathogens were statically incubated.
(§3) For clinical pathogenic organisms including S. typhimurium, V. cholera, S. boydii, K pneumonia, E. aerogenes, A. baumannii, E. tarda, and M. morganii strains, liquid LB media in 96-well microplates (100 μL/well) and the microdilution method from the CLSI guidelines were used.

Morganella morganii = experiment: as above; format: cell-based; conditions: microdilution (Table 6)
Procedure: as §2, §3

Salmonella typhimurium = experiment: as above; format: cell-based; conditions: Salmonella enterica, microdilution (Table 6)
Procedure: as §2, §3

Edwardsiella tarda = experiment: as above; format: cell-based; conditions: microdilution (Table 6)
Procedure: as §2, §3

Shigella boydii = experiment: as above; format: cell-based; conditions: microdilution (Table 6)
Procedure: as §2, §3

Enterobacter aerogenes = experiment: as above; format: cell-based; conditions: Klebsiella aerogenes, microdilution (Table 6)
Procedure: as §2, §3

Acinetobacter baumannii = experiment: as above; format: cell-based; conditions: microdilution (Table 6)
Procedure: as §2, §3

Klebsiella pneumonia = experiment: as above; format: cell-based; conditions: Klebsiella pneumoniae, microdilution (Table 6)
Procedure: as §2, §3

C. crescentus cells = experiment: Cell lysis observed by phase contrast microscopy; format: cell-based, Caulobacter crescentus
Procedure: The lysed cells appear fainter in phase contrast images, compared to un-lysed cells (e.g., a cell in the white circle).
At high concentrations of DCAP (≥75 μM), cell lysis within minutes after treatment was observed (FIG. 4).

K. pneumoniae = experiment: MIC of bacterial growth (Table 2); format: cell-based; conditions: Klebsiella pneumoniae; K. pneumoniae clinical isolate (Table 2)
Procedure: as §1

E. tarda = experiment: MIC of bacterial growth (Table 2); format: cell-based; conditions: Edwardsiella tarda; E. tarda clinical isolate (Table 2)
Procedure: as §1

V cholera = experiment: MIC of bacterial growth (Table 2); format: cell-based; conditions: Vibrio cholerae
Procedure: as §1

Row | Compound | GFP-MinD localization (GFP-MinD) | MIC (E. aerogenes) | MipZ-YFP localization (MipZ-YFP) | MIC (Vibrio cholera) | MIC (Morganella morganii) | MIC (Salmonella typhimurium) | MIC (Edwardsiella tarda) | MIC (Shigella boydii) | MIC (Enterobacter aerogenes) | MIC (Acinetobacter baumannii) | MIC (Klebsiella pneumonia) | Concentration at which cell lysis was observed within minutes after treatment (C. crescentus cells) | MIC (K. pneumoniae) | MIC (E. tarda) | MIC (V cholera)
1 | N#CC(C#N)=NNc1cccc(Cl)c1 [CCCP, carbonyl cyanide m-chlorophenyl hydrazone] | more diffuse fluorescence throughout the cell but had little effect on the location of the signal | – | – | – | – | – | – | – | – | – | – | – | – | – | –
2 | OCC(CO)(CO)NCC(O)Cn1c2ccc(Cl)cc2c2cc(Cl)ccc21 (stereo not shown) [DCAP, 2-((3-(3,6-dichloro-9H-carbazol-9-yl)-2-hydroxypropyl)amino)-2-(hydroxymethyl)propane-1,3-diol] | GFP-MinD mislocalized | 200 µM | caused MipZ-YFP to mislocalize | 50 µM | 200 µM | 100 µM | 100 µM | 100 µM | 200 µM | 200 µM | 200 µM | ≥ 75 µM | 100 µM | 200 µM | 100 µM
